One block for each molecule: values may come before it.
Test: solvent given as SMILES

Compound: CC1(C)c2cccc(-c3nc(-c4ccccc4)nc(-c4ccccc4)n3)c2Oc2c(N3c4ccccc4Sc4ccccc43)cccc21
- fluorescence lifetime (in Cc1ccccc1): 2.8 ns

Compound: N#Cc1c(-n2c3ccccc3c3cc(I)ccc32)c(-n2c3ccccc3c3cc(I)ccc32)c(C#N)c(-n2c3ccccc3c3cc(I)ccc32)c1-n1c2ccccc2c2cc(I)ccc21
- fluorescence lifetime (in Cc1ccccc1): 0.3 ns

Compound: COC(=O)C(Cc1ccc2oc(-c3ccc(N(C)c4ccccc4)cc3)nc2c1)NC(=O)OC(C)(C)C (centres undefined)
- fluorescence lifetime (in C1CCCCC1): 1.81 ns
- fluorescence lifetime (in C1CCOC1): 5.29 ns
- fluorescence lifetime (in C1COCCO1): 4.14 ns
- fluorescence lifetime (in CC1CCCO1): 4.37 ns
- fluorescence lifetime (in CC1COC(=O)O1): 4.3 ns
- fluorescence lifetime (in CC#N): 4.23 ns
- fluorescence lifetime (in CC(C)=O): 5.11 ns
- fluorescence lifetime (in CC(C)CC(C)(C)C): 1.7 ns
- fluorescence lifetime (in CC(C)CO): 4.24 ns
- fluorescence lifetime (in CC(C)O): 4.41 ns
- fluorescence lifetime (in CC(O)CO): 0.88 ns
- fluorescence lifetime (in CCC(C)CC): 1.67 ns
- fluorescence lifetime (in CCCCC): 1.88 ns
- fluorescence lifetime (in CCCCCC): 1.66 ns
- fluorescence lifetime (in CCCCCCCCC): 1.78 ns
- fluorescence lifetime (in CCCCCCCCCC): 1.79 ns
- fluorescence lifetime (in CCCCCCCO): 4.34 ns
- fluorescence lifetime (in CCCCCCO): 4.64 ns
- fluorescence lifetime (in CCCCCO): 5.44 ns
- fluorescence lifetime (in CCCCO): 3.97 ns
- fluorescence lifetime (in CCO): 1.59 ns
- fluorescence lifetime (in CCOC(C)=O): 4.68 ns
- fluorescence lifetime (in CCOCC): 4.4 ns
- fluorescence lifetime (in CN(C)C=O): 5.1 ns
- fluorescence lifetime (in CO): 0.76 ns
- fluorescence lifetime (in COCCOC): 1.18 ns
- fluorescence lifetime (in CS(C)=O): 4.74 ns
- fluorescence lifetime (in Cc1ccccc1): 2.81 ns
- fluorescence lifetime (in Cc1ccccc1C): 2.7 ns
- fluorescence lifetime (in ClC(Cl)Cl): 4.71 ns
- fluorescence lifetime (in ClCCl): 6.11 ns
- fluorescence lifetime (in NC=O): 2.35 ns
- fluorescence lifetime (in OC1CCCCC1): 4.88 ns
- fluorescence lifetime (in OCCO): 0.41 ns
- fluorescence lifetime (in c1ccccc1): 2.97 ns

Compound: C/C=C/c1ccc(OC)c(OC)c1
- fluorescence lifetime (in CC#N): 4 ns
- fluorescence lifetime (in CCCCCC): 3.7 ns

Compound: CN(C)c1ccc(/C=C/c2cc[n+](C)cc2)cc1
- fluorescence lifetime (in ClC(Cl)Cl): 0.153 ns

Compound: CCOC(=O)c1ccc2c(c1)sc1c3ccc(C(=O)OCC)cc3sc21
- fluorescence lifetime (in CCCO): 0.35 ns

Compound: N#Cc1ccc(C[C@H](N)C(=O)O)cc1
- fluorescence lifetime (in C1CCOC1): 3.65 ns
- fluorescence lifetime (in CC#N): 3.73 ns
- fluorescence lifetime (in CC(C)O): 4 ns
- fluorescence lifetime (in CC(O)CO): 4.28 ns
- fluorescence lifetime (in CCCCO): 4.6 ns
- fluorescence lifetime (in CCCO): 4.4 ns
- fluorescence lifetime (in CCO): 4.1 ns
- fluorescence lifetime (in CO): 6.1 ns
- fluorescence lifetime (in NC=O): 4.54 ns
- fluorescence lifetime (in O): 7 ns
- fluorescence lifetime (in O=CO): 8.1 ns

Compound: c1ccc(-c2cc(-c3ccc(N4c5ccccc5C(c5ccccc5)(c5ccccc5)c5ccccc54)cc3)nc(-c3ccccc3)n2)cc1
- fluorescence lifetime (in O=P(c1ccccc1)(c1ccccc1)c1ccccc1Oc1ccccc1P(=O)(c1ccccc1)c1ccccc1): 8.02 ns

Continued, values first:

- fluorescence lifetime (in ClC(Cl)Cl): 0.37 ns
Compound: CC1=CC(C)=[N+]2C1=C(c1ccc(I)cc1)c1c(C)cc(C)n1[B-]2(Oc1ccc(Cl)cc1)Oc1ccc(Cl)cc1

- fluorescence lifetime (in C1CCCCC1): 4.3 ns
Compound: CC(C)(C)C#Cc1ccc2c3cccc4cccc(c5cccc1c52)c43

- fluorescence lifetime (in C1CCOC1): 2.42 ns
- fluorescence lifetime (in C1COCCO1): 2.33 ns
- fluorescence lifetime (in CC#N): 2.24 ns
- fluorescence lifetime (in CC(C)O): 1.98 ns
- fluorescence lifetime (in CCO): 1.78 ns
- fluorescence lifetime (in CCOC(C)=O): 2.35 ns
- fluorescence lifetime (in CN(C)C=O): 2.45 ns
- fluorescence lifetime (in CO): 1.64 ns
- fluorescence lifetime (in CS(C)=O): 2.45 ns
- fluorescence lifetime (in O): 3.17 ns
Compound: NS(=O)(=O)c1ccc(N2N=C(c3ccc(O)cc3)CC2c2ccc(F)cc2)cc1 (centres undefined)

- fluorescence lifetime (in C1CCOC1): 2.29 ns
Compound: COC(=O)c1cc2c(cc3ccc4cccc5ccc2c3c45)[nH]1

- fluorescence lifetime (in ClCCl): 15.4 ns
Compound: COc1ccc(-c2c3cc4ccccc4cc3c(-c3ccc(OC)cc3)c3cc4sc(C)cc4cc23)cc1

- fluorescence lifetime (in ClCCl): 4.82 ns
Compound: CCOC(=O)COc1ccc(/C=C/C2=C3c4ccccc4C(c4[nH]c(C)cc4C)=[N+]3[B-](F)(F)n3c(/C=C/c4ccc(OCC(=O)OCC)cc4)cc(C)c32)cc1

- fluorescence lifetime (in ClC(Cl)Cl): 0.6 ns
Compound: O=Cc1ccc(C#CC(C#Cc2ccc(C=O)o2)=Cc2ccc(C=C(C#Cc3ccc(C=O)o3)C#Cc3ccc(C=O)o3)cc2)o1

Reference: the Deep4Chem optical property database
